Measured values taken from US9175305B2, “Mutant hydroxyphenylpyruvate dioxygenase polypeptides and methods of use” (Syngenta Participations AG, priority 2009, dated 2015).
Where two headings read alike, the source gives them in different places.

Tests used:
[1] = system: Jack w/t; test: herbicide spray test on soybean; type: in vivo; conditions: IFT 420 g/ha, V2 growth stage, 14 DAT, average of n=7
Procedure: (§1) Each data point represents the average damage score from n=7 replicates.
(§2) Plants were in 4×4×4 inch plastic pots and grown under a 15/9 hour light regime (daylight supplemented by artificial light in greenhouses) at a minimum night-time temperature of 18° C. and maximum daytime temperature of 27° C. Soil was regular VBRC mix (1:1 mixture of Vero field soil and Fafard Mix II) where Vero field soil is 98% sand and 2% clay. […] Spray volume was 150 L/ha and the damage scores reflect assessments at 14 DAT.

[2] = biological target: HPPD SEQ ID NO:24 (Avena sativa, UniProt A0ACD5V6K6, DEL109-109/L359M); test: biochemical; type: binding
Chain of HPPD SEQ ID NO:24 (A0ACD5V6K6 entry or part of it DEL109-109/L359M): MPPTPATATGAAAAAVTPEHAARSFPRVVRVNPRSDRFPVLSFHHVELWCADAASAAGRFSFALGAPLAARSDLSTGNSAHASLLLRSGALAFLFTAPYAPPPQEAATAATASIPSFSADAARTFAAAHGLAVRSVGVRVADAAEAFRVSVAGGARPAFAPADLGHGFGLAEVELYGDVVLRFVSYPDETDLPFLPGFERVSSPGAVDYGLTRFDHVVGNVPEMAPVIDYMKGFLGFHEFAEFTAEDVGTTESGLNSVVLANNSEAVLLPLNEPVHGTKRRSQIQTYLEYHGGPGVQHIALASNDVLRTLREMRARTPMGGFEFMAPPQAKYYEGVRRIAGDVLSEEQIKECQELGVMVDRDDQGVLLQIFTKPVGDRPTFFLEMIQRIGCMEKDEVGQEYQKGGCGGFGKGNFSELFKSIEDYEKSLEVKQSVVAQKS
Procedure: (§3) On rates (governed by an association rate constant, kon) for the formation of the enzyme: inhibitor complexes, EI and off rates (governed by a dissociation rate constant, koff) were determined by methods known in the art and essentially as described in Hawkes et al. (2001) Proc. Bright. Crop. Prot. Conf. Weeds, 2:563-568 and in PCT Patent App. Pub. No. WO 02/46387).
(§4) For example, on rates were measured by, at zero time, adding ˜60 pmoles HPPD to 50 mM BisTrisPropane buffer at pH7.0 and at 25° C. containing 25 mM Na ascorbate, 4 μg/ml bovine catalase (Sigma, St. Louis, Mo.) and an excess (˜300 pmoles) of ^14C inhibitor in a total assay volume of 425 μl and, at various time points (0-180 s), quenching the radiolabel binding reaction by addition and rapid mixing of 100 μl ‘cold’ 1 mM structure A. Protein samples quenched at different times were then exchanged into 50 mM BisTrisPropane buffer at pH 7.0 containing 0.1M KCl by rapid chromatography down a NAP5 G25 Sephadex column (GE Healthcare Ltd, Buckinghamshire UK) and the amount of ^14C bound to protein fractions quantified in Optiphase scintillant using a Tri-Carb 2900TR scintillation counter (Perkin Elmer, Wellesley, Mass.). The data were fit according to the scheme below in order to derive the value of the apparent second order rate constant, k2, governing the association rate of enzyme and radiolabelled inhibitor. A range of enzyme and inhibitor concentrations were used. […] Further example methods are described in PCT Patent App. Pub. No. WO 02/46387.
(§5) Off rates (k1 in the scheme below) were derived from exchange rate studies where either the test inhibitor, I, or its exchange partner, J were radiolabelled and the data fit according to the scheme below. As noted in Hawkes et al. (2001) Proc. Bright. Crop. Prot. Conf.
(§6) After 30 minutes the exchange reaction was initiated with addition of 100 μl 1 mM ‘cold’ structure A with thorough mixing, and, immediately, 150 μl were withdrawn and loaded onto a NAP5 column, the protein exchanged into 50 mM BisTrisPropane buffer at pH 7.0 containing 0.1M KCl by rapid (<2 min) chromatography down a NAP5 G25 Sephadex column (GE Healthcare Ltd, Buckinghamshire UK) and the amount of ^14C bound to protein measured by Optiphase scintillant using a Tri-Carb 2900TR scintillation counter (Perkin Elmer, Wellesley, Mass.). Further aliquots were removed and measured in the same way at various times over minutes or hours as required in order to determine the exchange kinetics.
(§7) After 30 minutes the reaction vessel was transferred to ice. After a further 10 minutes at ice temperature the exchange reaction was initiated by addition of 100 μl 1 mM Structure A, with thorough mixing, and 150 μl was withdrawn and loaded onto a NAP5 column in a cold room at ˜5-8° C. in order to quantify the amount of radiolabel remaining bound to the protein at various time from the start of exchange at ice temperature.
(§8) Off rates (k1) of HPPD inhibitors that are not available radiolabelled or that present other measurement problems (for example high levels of background non-specific protein-binding which can be measured as radiolabel binding that persists in the presence of high concentrations of ‘cold’ inhibitor) may be measured indirectly. […] Exemplary methods are also described in PCT Patent App. Pub. No. WO 02/46387.

[3] = system: soybean event 1 (vector 15764) expressing SEQ ID NO:14; test: herbicide spray test on soybean events; type: in vivo; conditions: IFT 420 g/ha; event 1/SEQ#14; V2 growth stage; 14 DAT; average of n=7
Excerpt: as §1
(§9) These events were used to compare the performance of five 17147 events. Four of these, SF, S8, S7 and S3 had not been preselected for tolerance level (other than to confirm resistance, non-chimerical nature and the presence of the gene) while the remaining event, T0, had been preselected as the most resistant out of five 17147 events in a preliminary field test.
as §2

[4] = system: soybean event S3 (vector 17147) expressing SEQ ID NO:24; test: herbicide spray test on soybean events; type: in vivo; conditions: IFT 420 g/ha; event S3/SEQ#24; V2 growth stage; 14 DAT; average of n=7
Excerpt: as §1, §9, §2

[5] = system: soybean event SF (vector 17147) expressing SEQ ID NO:24; test: herbicide spray test on soybean events; type: in vivo; conditions: IFT 420 g/ha; event SF/SEQ#24; V2 growth stage; 14 DAT; average of n=7
Excerpt: as §1, §9, §2

[6] = system: soybean event 2 (vector 15764) expressing SEQ ID NO:14; test: herbicide spray test on soybean events; type: in vivo; conditions: IFT 420 g/ha; event 2/SEQ#14; V2 growth stage; 14 DAT; average of n=7
Excerpt: as §1, §9, §2

[7] = system: soybean event S8 (vector 17147) expressing SEQ ID NO:24; test: herbicide spray test on soybean events; type: in vivo; conditions: IFT 420 g/ha; event S8/SEQ#24; V2 growth stage; 14 DAT; average of n=7
Excerpt: as §1, §9, §2

[8] = system: soybean event S7 (vector 17147) expressing SEQ ID NO:24; test: herbicide spray test on soybean events; type: in vivo; conditions: IFT 420 g/ha; event S7/SEQ#24; V2 growth stage; 14 DAT; average of n=7
Excerpt: as §1, §9, §2

[9] = system: soybean event T0 (vector 17147) expressing SEQ ID NO:24; test: herbicide spray test on soybean events; type: in vivo; conditions: IFT 420 g/ha; event T0/SEQ#24; V2 growth stage; 14 DAT; average of n=7
Excerpt: as §1, §9, §2

[10] = biological target: HPPD SEQ ID NO:23 (Avena sativa, UniProt A0ACD5V6K6, A242W/DEL109-109); test: biochemical; type: binding
Chain of HPPD SEQ ID NO:23 (A0ACD5V6K6 entry or part of it DEL109-109/A242W): as the sequence (A0ACD5V6K6 entry or part of it DEL109-109/L359M) above, with A241W, M358L counted along it
Procedure: as §3, §4, §5, §6, §7, §8

[11] = biological target: HPPD SEQ ID NO:18 (Avena sativa, UniProt A0ACD5V6K6, DEL109-109/I285T); test: biochemical; type: binding
Chain of HPPD SEQ ID NO:18 (A0ACD5V6K6 entry or part of it DEL109-109/I285T): as the sequence (A0ACD5V6K6 entry or part of it DEL109-109/L359M) above, with I284T, M358L counted along it
Procedure: as §3, §4, §5, §6, §7, §8

[12] = biological target: HPPD SEQ ID NO:14 (Avena sativa, UniProt A0ACD5V6K6, DEL109-109); test: biochemical; type: binding
Chain of HPPD SEQ ID NO:14 (A0ACD5V6K6 entry or part of it DEL109-109): as the sequence (A0ACD5V6K6 entry or part of it DEL109-109/L359M) above, with M358L counted along it
Procedure: as §3, §4, §5, §6, §7, §8

[13] = biological target: HPPD SEQ ID NO:21 (Avena sativa, UniProt A0ACD5V6K6, DEL109-109/I285V); test: biochemical; type: binding
Chain of HPPD SEQ ID NO:21 (A0ACD5V6K6 entry or part of it DEL109-109/I285V): as the sequence (A0ACD5V6K6 entry or part of it DEL109-109/L359M) above, with I284V, M358L counted along it
Procedure: as §3, §4, §5, §6, §7, §8

[14] = biological target: HPPD SEQ ID NO:15 (Avena sativa, UniProt A0ACD5V6K6, DEL109-109/Q298A); test: biochemical; type: binding
Chain of HPPD SEQ ID NO:15 (A0ACD5V6K6 entry or part of it DEL109-109/Q298A): as the sequence (A0ACD5V6K6 entry or part of it DEL109-109/L359M) above, with Q297A, M358L counted along it
Procedure: as §3, §4, §5, §6, §7, §8

[15] = biological target: HPPD SEQ ID NO:22 (Avena sativa, UniProt A0ACD5V6K6, DEL109-109/L256M); test: biochemical; type: binding
Chain of HPPD SEQ ID NO:22 (A0ACD5V6K6 entry or part of it DEL109-109/L256M): as the sequence (A0ACD5V6K6 entry or part of it DEL109-109/L359M) above, with L255M, M358L counted along it
Procedure: as §3, §4, §5, §6, §7, §8

SMILES: CS(=O)(=O)c1cc(C(F)(F)F)ccc1C(=O)c1cnoc1C1CC1 [IFT, isoxaflutole]
- % dam. [1]: 96.1%
- SEQ ID NO:24 superior to SEQ ID NO:14 (in vitro, in particular off rate data) [2]: 2.3 fold
- % dam. [3]: 26.4%
- % dam. [4]: 30%
- % dam. [5]: 40%
- % dam. [6]: 42.5%
- % dam. [7]: 31.3%
- % dam. [8]: 20.7%
- % dam. [9]: 19.3%

SMILES: CCOc1c(S(C)(=O)=O)ccc(C(=O)C2C(=O)CC(C)CC2=O)c1Cl (stereo not shown) [Structure A]
- Kd [10]: 0.33 nM
- koff ([10]; read-out: koff (k1)): 2.83e-05 s⁻¹
- kon ([10]; read-out: kon (k2)): 85000 M⁻¹ s⁻¹
- Kd [11]: 0.4 nM
- koff ([11]; read-out: koff (k1)): 1.67e-05 s⁻¹
- kon ([11]; read-out: kon (k2)): 42000 M⁻¹ s⁻¹
- koff ([12]; 25° C., direct, radiochemical method, average and individual experiments, read-out: Off rate k1): 1.67e-05 s⁻¹
- kon ([12]; 25° C., direct, radiochemical method, average and individual experiments, read-out: On rate k2): 85000 M⁻¹ s⁻¹
- Kd/Km ratio ([12]; HPPD SEQ ID NO:14): 0.000036
- Kd ([12]; HPPD variant SEQ ID# 14, 25° C.): 0.2 nM
- Kd ([12]; estimated from on and off rates, 25° C.): 0.196 nM
- koff ([12]; read-out: koff (k1)): 1.67e-05 s⁻¹
- kon ([12]; read-out: kon (k2)): 85000 M⁻¹ s⁻¹
- Kd [13]: 0.2 nM
- koff ([13]; read-out: koff (k1)): 1.67e-05 s⁻¹
- kon ([13]; read-out: kon (k2)): 85000 M⁻¹ s⁻¹
- Kd [2]: 0.27 nM
- koff ([2]; read-out: koff (k1)): 2.3e-05 s⁻¹
- kon ([2]; read-out: kon (k2)): 85000 M⁻¹ s⁻¹
- Kd [14]: 0.95 nM
- koff ([14]; read-out: koff (k1)): 3.33e-05 s⁻¹
- kon ([14]; read-out: kon (k2)): 35000 M⁻¹ s⁻¹
- Kd [15]: 0.13 nM
- koff ([15]; read-out: koff (k1)): 1.08e-05 s⁻¹
- kon ([15]; read-out: kon (k2)): 85000 M⁻¹ s⁻¹
